Assay results reported in US6914045B2, “Glycopeptide antibiotics” (Wyeth Holdings Corporation, priority 2001, dated 2005).
Converted amounts (≈) assume the structure as drawn.

What was measured:
Assay in all cases: in vitro antibacterial evaluation, MIC by broth dilution
Format in all cases: cell-based
Enterococcus sp. = settings: broth dilution, 18 hours at 35° C.
Outline: (§1)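 MIC = lowest antibiotic concentration preventing visible growth; inoculum 5×10^5 CFU/mL; drug range 64-0.06 μg/mL; Muller-Hinton II […]; NCCLS M7-A2 guidance.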

Staphylococcus sp. = settings: broth dilution, 18 hours at 35° C.
Outline: as §1

Streptococcus sp. = settings: broth dilution, 18 hours at 35° C.
Outline: as §1

Escherichia coli = settings: 18 hours at 35° C.

## COc1ccc(COC2C(CO)OC(OC3C(CO)OC(Oc4ccc(CC5NC(=O)C(C(C)c6ccccc6)NC(=O)CNC(=O)C(CO)NC(=O)C(C(O)C6CNC(=N)N6C6OC(CO)C(O)C(O)C6O)NC(=O)C(C(O)C6CNC(=N)N6)NC5=O)cc4)C(O)C3O)C(O)C2O)cc1OCc1ccccc1 (stereo not shown) [Example 239a]
Enterococcus sp.
  MIC Enterococcus avium (GC 4558): 8 mg/L (≈ 5.26 µM)
  MIC Enterococcus faecalis (ATCC 29212): 8 mg/L (≈ 5.26 µM)
  MIC Enterococcus faecalis (GC 2242): 8 mg/L (≈ 5.26 µM)
  MIC Enterococcus faecalis (GC 2691): 8 mg/L (≈ 5.26 µM)
  MIC Enterococcus faecalis (GC 3059): 8 mg/L (≈ 5.26 µM)
  MIC Enterococcus faecalis (GC 4552): 8 mg/L (≈ 5.26 µM)
  MIC Enterococcus faecalis (GC 4553): 8 mg/L (≈ 5.26 µM)
  MIC Enterococcus faecalis (GC 4554): 16 mg/L (≈ 10.5 µM)
  MIC Enterococcus faecalis (GC 6189): 8 mg/L (≈ 5.26 µM)
  MIC Enterococcus faecium (GC 2243): 8 mg/L (≈ 5.26 µM)
  MIC Enterococcus faecium (GC 4556): 8 mg/L (≈ 5.26 µM)
  MIC Enterococcus faecium (GC 4557): 4 mg/L (≈ 2.63 µM)
Enterococcus sp.; strain ATCC 29212
  MIC Enterococcus faecalis (ATCC 29212): 8 mg/L (≈ 5.26 µM)
Enterococcus sp.; strain GC 2243
  MIC Enterococcus faecium (GC 2243): 8 mg/L (≈ 5.26 µM)
Enterococcus sp.; strain GC 4552
  MIC Enterococcus faecalis (GC 4552): 8 mg/L (≈ 5.26 µM)
Enterococcus sp.; strain GC 4553
  MIC Enterococcus faecalis (GC 4553): 8 mg/L (≈ 5.26 µM)
Enterococcus sp.; strain GC 4554
  MIC Enterococcus faecalis (GC 4554): 16 mg/L (≈ 10.5 µM)
Enterococcus sp.; strain GC 4556
  MIC Enterococcus faecium (GC 4556): 8 mg/L (≈ 5.26 µM)
Enterococcus sp.; strain GC 4557
  MIC Enterococcus faecium (GC 4557): 4 mg/L (≈ 2.63 µM)
Enterococcus sp.; strain GC 4558
  MIC Enterococcus avium (GC 4558): 8 mg/L (≈ 5.26 µM)
Enterococcus sp.; strain GC 6189
  MIC Enterococcus faecalis (GC 6189): 8 mg/L (≈ 5.26 µM)
Enterococcus sp.; inoculum 5×10^5 CFU/mL, strain GC 2242
  MIC Enterococcus faecalis (GC 2242): 8 mg/L (≈ 5.26 µM)
Enterococcus sp.; inoculum 5×10^5 CFU/mL, strain GC 2691
  MIC Enterococcus faecalis (GC 2691): 8 mg/L (≈ 5.26 µM)
Enterococcus sp.; inoculum 5×10^5 CFU/mL, strain GC 3059
  MIC Enterococcus faecalis (GC 3059): 8 mg/L (≈ 5.26 µM)
Staphylococcus sp.
  MIC Coagulase Negative Staphylococcus (GC 4547): 2 mg/L (≈ 1.31 µM)
  MIC Coagulase Negative Staphylococcus (GC 4548): 1 mg/L (≈ 0.657 µM)
  MIC Coagulase Negative Staphylococcus (GC 4549): 2 mg/L (≈ 1.31 µM)
  MIC Coagulase Negative Staphylococcus (GC 4551): 2 mg/L (≈ 1.31 µM)
  MIC Coagulase Negative Staphylococcus (GC 6257): 2 mg/L (≈ 1.31 µM)
  MIC Staphylococcus aureus (ATCC 29213): 4 mg/L (≈ 2.63 µM)
  MIC Staphylococcus aureus (GC 1131): 4 mg/L (≈ 2.63 µM)
  MIC Staphylococcus aureus (GC 3051): 2 mg/L (≈ 1.31 µM)
  MIC Staphylococcus aureus (GC 3053): 4 mg/L (≈ 2.63 µM)
  MIC Staphylococcus aureus (GC 4541): 4 mg/L (≈ 2.63 µM)
  MIC Staphylococcus aureus (GC 4542): 4 mg/L (≈ 2.63 µM)
  MIC Staphylococcus aureus (GC 4544): 4 mg/L (≈ 2.63 µM)
  MIC Staphylococcus aureus (GC 4545): 4 mg/L (≈ 2.63 µM)
  MIC Staphylococcus aureus-SMITH (GC 4543): 2 mg/L (≈ 1.31 µM)
  MIC Staphylococcus haemolyticus (GC 4546): 2 mg/L (≈ 1.31 µM)
Staphylococcus sp.; strain ATCC 29213
  MIC Staphylococcus aureus (ATCC 29213): 4 mg/L (≈ 2.63 µM)
Staphylococcus sp.; strain GC 1131
  MIC Staphylococcus aureus (GC 1131): 4 mg/L (≈ 2.63 µM)
Staphylococcus sp.; strain GC 3051
  MIC Staphylococcus aureus (GC 3051): 2 mg/L (≈ 1.31 µM)
Staphylococcus sp.; strain GC 3053
  MIC Staphylococcus aureus (GC 3053): 4 mg/L (≈ 2.63 µM)
Staphylococcus sp.; strain GC 4541
  MIC Staphylococcus aureus (GC 4541): 4 mg/L (≈ 2.63 µM)
Staphylococcus sp.; strain GC 4542
  MIC Staphylococcus aureus (GC 4542): 4 mg/L (≈ 2.63 µM)
Staphylococcus sp.; strain GC 4543
  MIC Staphylococcus aureus-SMITH (GC 4543): 2 mg/L (≈ 1.31 µM)
Staphylococcus sp.; strain GC 4544
  MIC Staphylococcus aureus (GC 4544): 4 mg/L (≈ 2.63 µM)
Staphylococcus sp.; strain GC 4545
  MIC Staphylococcus aureus (GC 4545): 4 mg/L (≈ 2.63 µM)
Staphylococcus sp.; strain GC 4546
  MIC Staphylococcus haemolyticus (GC 4546): 2 mg/L (≈ 1.31 µM)
Staphylococcus sp.; strain GC 4547
  MIC Coagulase Negative Staphylococcus (GC 4547): 2 mg/L (≈ 1.31 µM)
Staphylococcus sp.; strain GC 4548
  MIC Coagulase Negative Staphylococcus (GC 4548): 1 mg/L (≈ 0.657 µM)
Staphylococcus sp.; strain GC 4549
  MIC Coagulase Negative Staphylococcus (GC 4549): 2 mg/L (≈ 1.31 µM)
Staphylococcus sp.; strain GC 4551
  MIC Coagulase Negative Staphylococcus (GC 4551): 2 mg/L (≈ 1.31 µM)
Staphylococcus sp.; strain GC 6257
  MIC Coagulase Negative Staphylococcus (GC 6257): 2 mg/L (≈ 1.31 µM)
Streptococcus sp.
  MIC Streptococcus agalactiae (GC 4564): 1 mg/L (≈ 0.657 µM)
  MIC Streptococcus pneumoniae (ATCC 6301): 0.25 mg/L (≈ 0.164 µM)
  MIC Streptococcus pneumoniae (GC 1894): <0.06 mg/L
  MIC Streptococcus pneumoniae (GC 4565): 0.25 mg/L (≈ 0.164 µM)
  MIC Streptococcus pyogenes (GC 4563): 2 mg/L (≈ 1.31 µM)
Streptococcus sp.; inoculum 5×10^5 CFU/mL, strain ATCC 6301
  MIC Streptococcus pneumoniae (ATCC 6301): 0.25 mg/L (≈ 0.164 µM)
Streptococcus sp.; inoculum 5×10^5 CFU/mL, strain GC 1894
  MIC Streptococcus pneumoniae (GC 1894): <0.06 mg/L
Streptococcus sp.; inoculum 5×10^5 CFU/mL, strain GC 4563
  MIC Streptococcus pyogenes (GC 4563): 2 mg/L (≈ 1.31 µM)
Streptococcus sp.; inoculum 5×10^5 CFU/mL, strain GC 4564
  MIC Streptococcus agalactiae (GC 4564): 1 mg/L (≈ 0.657 µM)
Streptococcus sp.; inoculum 5×10^5 CFU/mL, strain GC 4565
  MIC Streptococcus pneumoniae (GC 4565): 0.25 mg/L (≈ 0.164 µM)
Escherichia coli
  MIC Escherichia coli (ATCC 25922): >64 mg/L
  MIC Escherichia coli (GC 4559): >64 mg/L
  MIC Escherichia coli (GC 4560): 2 mg/L (≈ 1.31 µM)
